The assay concerns the target T1, human full length HSD11β1 (Homo sapiens, UniProt P28845).
T1 construct: transient expression of human full length HSD11β1 expression vector; host or cells: CHO cells, transient transfection
Briefly: In Vitro HSD11β1 Inhibition Assay. Particulars: CHO cells transiently expressing human HSD11β1; 200 nM cortisone+500 uM NADPH overnight; cortisone to cortisol by LC/MS-MS; read-out: 11βHSD1 (IC50). The format is cell-based. In short, it runs like this: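 Whole-cell assay in CHO cells transiently transfected with full-length human HSD11β1, re-seeded 24 h after transfection. Cells incubated overnight with 200 nM cortisone plus 500 uM NADPH, with or without inhibitor. Cortisone-to-cortisol conversion measured by LC/MS-MS; IC50 (nM) from an 8-point log concentration-inhibition curve.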

T1 sequence (P28845 whole entry): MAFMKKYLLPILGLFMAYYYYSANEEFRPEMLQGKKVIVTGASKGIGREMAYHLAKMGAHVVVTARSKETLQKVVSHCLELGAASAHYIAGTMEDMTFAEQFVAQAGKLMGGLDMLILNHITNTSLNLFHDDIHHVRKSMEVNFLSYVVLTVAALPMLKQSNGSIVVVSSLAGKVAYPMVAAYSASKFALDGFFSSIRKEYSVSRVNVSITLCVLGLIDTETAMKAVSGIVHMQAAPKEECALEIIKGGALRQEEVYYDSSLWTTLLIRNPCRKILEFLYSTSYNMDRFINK

Consider `CC(CC(=O)N1C2CC3CC1CC(Br)(C3)C2)c1c[nH]c2ccc(OS(=O)(=O)C(F)(F)F)cc12` (centres unmarked) [Compound 225, 3-(4-(5-bromo-2-azaadamantan-2-yl)-4-oxobutan-2-yl)-1H-indol-5-yl trifluoromethanesulfonate], for which the IC50 is greater than 250 nM.
As for `COc1ccc2[nH]cc(C(C)CC(=O)N3C4CC5CC(C4)CC3C5)c2c1` (centres unmarked) [Compound 226, 1-(2-azaadamantan-2-yl)-3-(5-methoxy-1H-indol-3-yl)butan-1-one], the figure is less than 100 nM.
The result for `COc1ccc2[nH]cc(C(C)CC(=O)N3C4CC5CC3CC(C)(C5)C4)c2c1` (centres unmarked) [Compound 227, 3-(5-methoxy-1H-indol-3-yl)-1-(5-methyl-2-azaadamantan-2-yl)butan-1-one] reads less than 100 nM; that for `CC(CC(=O)N1C2CC3CC(C2)CC1C3)c1c[nH]c2ccc(OS(C)(=O)=O)cc12` (centres unmarked) [Compound 229, 3-(4-(2-azaadamantan-2-yl)-4-oxobutan-2-yl)-1H-indol-5-yl methanesulfonate], greater than 250 nM; that for `COc1ccc2[nH]cc(C(C)CC(=O)N3C4CC5CC3CC(C#N)(C5)C4)c2c1` (centres unmarked) [Compound 230, 2-(3-(5-methoxy-1H-indol-3-yl)butanoyl)-2-azaadamantane-5-carbonitrile], greater than 250 nM.
As for `O=C(CCc1c[nH]c2ccccc12)N1C2CC3CC(C2)CC1C3` [Example 1, 1-(2-azatricyclo[3.3.1.1^3,7]dec-2-yl)-3-(1H-indol-3-yl)propan-1-one], the figure is greater than 250 nM; as for `Cc1cccc2[nH]cc(CCC(=O)N3C4CC5CC(C4)CC3C5)c12` [Example 2, 1-(2-azatricyclo[3.3.1.1^3,7]dec-2-yl)-3-(4-methyl-1H-indol-3-yl)propan-1-one], 100 to 150 nM; as for `Cc1cccc2c1c(CCC(=O)N1C3CC4CC(C3)CC1C4)cn2C` [Example 3, 1-(2-azatricyclo[3.3.1.1^3,7]dec-2-yl)-3-(1,4-dimethyl-1H-indol-3-yl)propan-1-one], greater than 250 nM.
Regarding `O=C(CCc1c[nH]c2cccc(F)c12)N1C2CC3CC1CC(O)(C3)C2` [Example 4, 3-(4-fluoro-1H-indol-3-yl)-1-(5-hydroxy-2-azatricyclo[3.3.1.1^3,7]dec-2-yl)propan-1-one], the IC50 was greater than 250 nM.
As for `O=C(CCc1c[nH]c2cc(F)ccc12)N1C2CC3CC(C2)CC1C3` [Example 5, 1-(2-azatricyclo[3.3.1.1^3,7]dec-2-yl)-3-(6-fluoro-1H-indol-3-yl)propan-1-one], the IC50 is 200 to 250 nM.
Turning to `O=C(CCc1c[nH]c2ccc(F)cc12)N1C2CC3CC(C2)CC1C3` [Example 7, 1-(2-azatricyclo[3.3.1.1^3,7]dec-2-yl)-3-(5-fluoro-1H-indol-3-yl)propan-1-one], the IC50 is greater than 250 nM.
As for `Cn1cc(CCC(=O)N2C3CC4CC2CC(O)(C4)C3)c2c(F)cccc21` [Example 8, 3-(4-fluoro-1-methyl-1H-indol-3-yl)-1-(5-hydroxy-2-azatricyclo[3.3.1.1^3,7]dec-2-yl)propan-1-one], the figure is greater than 250 nM; as for `Cn1cc(C(C)(C)CC(=O)N2C3CC4CC2CC(O)(C4)C3)c2ccccc21` [Example 10, 1-(5-hydroxy-2-azatricyclo[3.3.1.1^3,7]dec-2-yl)-3-methyl-3-(1-methyl-1H-indol-3-yl)butan-1-one], greater than 250 nM; as for `O=C(CCc1nc2ccccc2s1)N1C2CC3CC(C2)CC1C3` [Example 11, 1-(2-azatricyclo[3.3.1.1^3,7]dec-2-yl)-3-(1,3-benzothiazol-2-yl)propan-1-one], greater than 250 nM.
The result for `O=C(CCc1nc2ccccc2s1)N1C2CC3CC1CC(O)(C3)C2` [Example 12, 3-(1,3-benzothiazol-2-yl)-1-(5-hydroxy-2-azatricyclo[3.3.1.1^3,7]dec-2-yl)propan-1-one] reads greater than 250 nM; that for `O=C(CCc1nc2ccccc2s1)N1C2CC3CC1CC(OC(F)F)(C3)C2` [Example 13, 3-(1,3-benzothiazol-2-yl)-1-[5-(difluoromethoxy)-2-azatricyclo[3.3.1.1^3,7]dec-2-yl]propan-1-one], greater than 250 nM.
As for `O=C(CCc1c[nH]c2ncccc12)N1C2CC3CC(C2)CC1C3` [Example 14, 1-(2-azatricyclo[3.3.1.1^3,7]dec-2-yl)-3-(1H-pyrrolo[2,3-b]pyridin-3-yl)propan-1-one], the figure is 100 to 150 nM; as for `O=C(CCc1c[nH]c2ncccc12)N1C2CC3CC1CC(O)(C3)C2` [Example 15, 1-(5-hydroxy-2-azatricyclo[3.3.1.1^3,7]dec-2-yl)-3-(1H-pyrrolo[2,3-b]pyridin-3-yl)propan-1-one], greater than 250 nM.
`O=C(CCn1nnc2ccccc21)N1C2CC3CC1CC(O)(C3)C2` [Example 16, 3-(1H-benzotriazol-1-yl)-1-(5-hydroxy-2-azatricyclo[3.3.1.1^3,7]dec-2-yl)propan-1-one]: the IC50 is greater than 250 nM.
The result for `CC(CC(=O)N1C2CC3CC(C2)CC1C3)c1c[nH]c2ccccc12` (centres unmarked) [Example 17, 1-(2-azatricyclo[3.3.1.1^3,7]dec-2-yl)-3-(1H-indol-3-yl)butan-1-one] reads 100 to 150 nM; that for `CC(CC(=O)N1C2CC3CC(C2)C(O)C1C3)c1c[nH]c2ccccc12` (centres unmarked) [Example 18, 1-(4-hydroxy-2-azatricyclo[3.3.1.1^3,7]dec-2-yl)-3-(1H-indol-3-yl)butan-1-one], 100 to 150 nM.
As for `CC(C)C(CC(=O)N1C2CC3CC(C2)C(O)C1C3)c1c[nH]c2ccccc12` (centres unmarked) [Example 19, 1-(4-hydroxy-2-azatricyclo[3.3.1.1^3,7]dec-2-yl)-3-(1H-indol-3-yl)-4-methylpentan-1-one], the figure is 200 to 250 nM.
The result for `CC(CC(=O)N1C2CC3CC1CC(O)(C3)C2)c1c[nH]c2ccccc12` (centres unmarked) [Example 20, 1-(5-hydroxy-2-azatricyclo[3.3.1.1^3,7]dec-2-yl)-3-(1H-indol-3-yl)butan-1-one] reads greater than 250 nM; that for `CC(C)C(CC(=O)N1C2CC3CC1CC(O)(C3)C2)c1c[nH]c2ccccc12` (centres unmarked) [Example 23, 1-(5-hydroxy-2-azatricyclo[3.3.1.1^3,7]dec-2-yl)-3-(1H-indol-3-yl)-4-methylpentan-1-one], greater than 250 nM.
Regarding `CC(C)C(CC(=O)N1C2CC3CC1CC(F)(C3)C2)c1c[nH]c2ccccc12` (centres unmarked) [Example 24, 1-(5-fluoro-2-azatricyclo[3.3.1.1^3,7]dec-2-yl)-3-(1H-indol-3-yl)-4-methylpentan-1-one], the IC50 was greater than 250 nM.
The result for `CC(C)C(CC(=O)N1C2CC3CC1CC(O)(C3)C2)c1c[nH]c2cccc(F)c12` (centres unmarked) [Example 25, 3-(4-fluoro-1H-indol-3-yl)-1-(5-hydroxy-2-azatricyclo[3.3.1.1^3,7]dec-2-yl)-4-methylpentan-1-one] reads greater than 250 nM.
As to `CC(CC(=O)N1C2CC3CC1CC(O)(C3)C2)c1c[nH]c2cccc(F)c12` (centres unmarked) [Example 26, 3-(4-fluoro-1H-indol-3-yl)-1-(5-hydroxy-2-azatricyclo[3.3.1.1^3,7]dec-2-yl)butan-1-one], the IC50 fell in the range of 200 to 250 nM.
In the case of `COC12CC3CC(C1)N(C(=O)CC(C)c1c[nH]c4cccc(F)c14)C(C3)C2` (centres unmarked) [Example 29, 3-(4-fluoro-1H-indol-3-yl)-1-(5-methoxy-2-azatricyclo[3.3.1.1^3,7]dec-2-yl)butan-1-one], the IC50 lay within 100 to 150 nM.
For the molecule `CC(CC(=O)N1C2CC3CC1CC(Cl)(C3)C2)c1c[nH]c2cccc(F)c12` (centres unmarked) [Example 32, 1-(5-chloro-2-azatricyclo[3.3.1.1^3,7]dec-2-yl)-3-(4-fluoro-1H-indol-3-yl)butan-1-one], the IC50 was 150 to 200 nM.
Consider `CC(CC(=O)N1C2CC3CC1CC(OCC1CC1)(C3)C2)c1c[nH]c2cccc(F)c12` (centres unmarked) [Example 33, 1-[5-(cyclopropylmethoxy)-2-azatricyclo[3.3.1.1^3,7]dec-2-yl]-3-(4-fluoro-1H-indol-3-yl)butan-1-one], for which the IC50 is greater than 250 nM.
As for `COC12CC3CC(C1)N(C(=O)CC(C)c1c[nH]c4ccccc14)C(C3)C2` (centres unmarked) [Example 34, 3-(1H-indol-3-yl)-1-(5-methoxy-2-azatricyclo[3.3.1.1^3,7]dec-2-yl)butan-1-one], the figure is greater than 250 nM.
As for `CC(CC(=O)N1C2CC3CC1CC(O)(C3)C2)c1c[nH]c2cccc(Cl)c12` (centres unmarked) [Example 35, 3-(4-chloro-1H-indol-3-yl)-1-(5-hydroxy-2-azatricyclo[3.3.1.1^3,7]dec-2-yl)butan-1-one], the figure is less than 100 nM.
For the molecule `CC(CC(=O)N1C2CC3CC1CC(OC(F)F)(C3)C2)c1c[nH]c2cccc(Cl)c12` (centres unmarked) [Example 39, 3-(4-chloro-1H-indol-3-yl)-1-[5-(difluoromethoxy)-2-azatricyclo[3.3.1.1^7]dec-2-yl]butan-1-one], the IC50 was in the range of 100 to 150 nM.
With `CC(CC(=O)N1C2CC3CC1CC(O)(C3)C2)c1c[nH]c2cccc(C3CC3)c12` (centres unmarked) [Example 41], the IC50 is less than 100 nM.
The result for `CC(CC(=O)N1C2CC3CC1CC(C(=O)O)(C3)C2)c1c[nH]c2cccc(Cl)c12` (centres unmarked) [Example 43, 2-[3-(4-chloro-1H-indol-3-yl)butanoyl]-2-azatricyclo[3.3.1.1^3,7]decane-carboxylic acid] reads greater than 250 nM; that for `CC(CC(=O)N1C2CC3CC1CC(O)(C3)C2)c1c[nH]c2cccc(Oc3ccc(Cl)cc3)c12` (centres unmarked) [Example 44, 3-[4-(4-chlorophenoxy)-1H-indol-3-yl]-1-(5-hydroxy-2-azatricyclo[3.3.1.1^3,7]dec-2-yl)butan-1-one], 200 to 250 nM.
The result for `CC(CC(=O)N1C2CC3CC1CC(C(=O)Nc1ccc(F)cc1)(C3)C2)c1c[nH]c2cccc(Cl)c12` (centres unmarked) [Example 45, 2-[3-(4-chloro-1H-indol-3-yl)butanoyl]-N-(4-fluorophenyl)-2-azatricyclo[3.3.1.1^3,7]decane-5-carboxamide] reads greater than 250 nM; that for `CC(CC(=O)N1C2CC3CC1CC(O)(C3)C2)c1cn(S(C)(=O)=O)c2cccc(Cl)c12` (centres unmarked) [Example 46, 3-[4-chloro-1-(methylsulfonyl)-1H-indol-3-yl]-1-(5-hydroxy-2-azatricyclo[3.3.1.1^3,7]dec-2-yl)butan-1-one], greater than 250 nM.

The values are drawn from patent US9303016B2, “Derivatives of aza adamantane and uses thereof” (CONNEXIOS LIFE SCIENCES PVT. LTD., priority 2011, dated 2016).
